A word on the GI50: it is the concentration giving 50% growth inhibition.

Each structure is given as a SMILES string.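 Each compound was tested at five concentrations against cells in 96-well plates for 48 hours. Abbreviation: GI50, concentration required for 50% inhibition of growth.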 Active and inactive are the calls of the source. Cut-off read from the data, not from the text of the source: active = GI50 up to about 1.1 µM and inactive = higher.

Test systems include EKVX; 786-0; NCI-H23; SF-268; SW-620; DLD-1; NCI-H226; M14; UACC-62; Malme-3M; HOP-92; U-251; OVCAR-8; MCF7; SR; HCT-116; BT-549; MDA-MB-231; MDA-N; PC-3.
What all share (assay): DTP human tumour cell line panel, 48 h

`CCOC(=O)c1c2ccc(/C=C/c3ccccn3)ccc-2c(C(=O)OCC)c1N`: the GI50 in the assay with EKVX was > 100 µM (inactive); with 786-0, > 100 µM (inactive); in the assay on NCI-H23 it was > 100 µM (inactive); in the assay with SF-268, 0.091 µM (active); with SW-620, > 100 µM (inactive); in the assay on DLD-1, > 100 µM (inactive). Besides, the GI50 in the assay with NCI-H226, in the assay on M14, with UACC-62, with Malme-3M and with HOP-92 was > 100 µM (inactive) each time.
Consider `CC[P+](C)(C)c1ccccc1`, for which the GI50 in the assay on EKVX, with U-251, in the assay with 786-0, in the assay on NCI-H23, in the assay with SF-268 and with SW-620 was > 100 µM (inactive) in each case. The GI50 with DLD-1, in the assay with M14, in the assay on OVCAR-8, with UACC-62 and with Malme-3M was > 100 µM (inactive) each time.
In the case of `CCCC(=O)O[C@H]1C=C2C[C@@]34SS[C@]5(CC6=C[C@H](OC(C)=O)[C@@H]7O[C@@H]7[C@H]6N5C3=O)C(=O)N4[C@@H]2[C@H]2O[C@H]21`, the GI50 in the assay with MCF7 was 13.2 nM (active); with EKVX, 0.0178 µM (active); with SR it was < 0.005 µM (active); with U-251, 0.00822 µM (active); in the assay on HCT-116, 0.00847 µM (active); in the assay on BT-549 it was 0.021 µM (active). Moreover, the GI50 in the assay on 786-0 was < 0.005 µM (active); in the assay on MDA-MB-231, 25.4 nM (active); in the assay on NCI-H23, 0.0241 µM (active); in the assay with MDA-N, 8.17 nM (active); in the assay with SF-268, 0.00775 µM (active); in the assay with SW-620 it was 0.00548 µM (active). The GI50 is 19.9 nM (active) in the assay on PC-3; 0.0766 µM (active) in the assay on NCI-H226; 0.0129 µM (active) in the assay with M14; 0.00644 µM (active) with OVCAR-8; 0.0225 µM (active) with UACC-62; 0.02 µM (active) in the assay on Malme-3M. For the same molecule, the GI50 with HOP-92 was 0.02 µM (active).
As to `O=c1cc(-c2ccccc2)[nH]c2cccc(S)c12`, the GI50 is 465 nM (active) with MCF7; > 100 µM (inactive) in the assay with EKVX; 0.172 µM (active) in the assay with SR; 0.182 µM (active) in the assay with U-251; 0.0867 µM (active) in the assay on HCT-116; 13.6 µM (inactive) in the assay on BT-549. In addition, the GI50 with 786-0 is 0.301 µM (active); with MDA-MB-231 it was 455 nM (active); in the assay with NCI-H23 it was 0.445 µM (active); in the assay on MDA-N it was 24.6 nM (active); in the assay with SF-268 it was 1.25 µM (inactive); with SW-620, 0.0566 µM (active). The GI50 in the assay on PC-3 was 123 nM (active); with NCI-H226, 0.406 µM (active); in the assay with M14 it was 0.857 µM (active); in the assay with OVCAR-8 it was 0.324 µM (active); with UACC-62 it was 0.155 µM (active); in the assay on Malme-3M, 0.153 µM (active). In the assay with HOP-92, the GI50 is 0.288 µM (active).
For the molecule `C/C(CC(=O)Nc1ccccc1[N+](=O)[O-])=N\NC(N)=O`, the GI50 with EKVX, in the assay on U-251, with HCT-116, with 786-0, with NCI-H23 and in the assay with SF-268 was > 100 µM (inactive) each time. The GI50 with SW-620, in the assay on DLD-1, with NCI-H226, in the assay on M14, in the assay on OVCAR-8 and with UACC-62 was > 100 µM (inactive) in each case. Further, the GI50 with Malme-3M and in the assay with HOP-92 was > 100 µM (inactive) throughout.
As for `COc1ccc(C(=O)O)c(Cc2cccc3ccccc23)c1`, the GI50 with EKVX, in the assay with SR, in the assay on U-251, in the assay with HCT-116, with 786-0 and in the assay on NCI-H23 was > 100 µM (inactive) in each case. Further, the GI50 in the assay with SF-268, in the assay on SW-620, in the assay with DLD-1, with NCI-H226, in the assay on M14 and in the assay on OVCAR-8 was > 100 µM (inactive) in each case. For the same molecule, the GI50 in the assay with UACC-62 is 85.9 µM (inactive); in the assay with Malme-3M, > 100 µM (inactive).
On to `CC1/C(=N\O)CC(c2ccccc2)N(C)C1c1ccccc1` (stereo not drawn), for which the GI50 in the assay on EKVX, in the assay on U-251, in the assay on HCT-116, in the assay on 786-0, in the assay with NCI-H23 and in the assay with SF-268 was > 100 µM (inactive) each time. The GI50 in the assay with SW-620, in the assay with DLD-1, in the assay on NCI-H226, with M14, in the assay on OVCAR-8 and with UACC-62 was > 100 µM (inactive) throughout. Besides, the GI50 in the assay with Malme-3M was 80.9 µM (inactive); in the assay on HOP-92 it was > 100 µM (inactive).
In the case of `O=C(NC1C(=O)NNC1c1cccc([N+](=O)[O-])c1)c1ccccc1` (stereo not drawn), the GI50 in the assay with EKVX, in the assay with U-251, in the assay with HCT-116, in the assay on 786-0, with NCI-H23 and in the assay on SF-268 was > 100 µM (inactive) throughout. For the same molecule, the GI50 in the assay on SW-620, with DLD-1, with NCI-H226, with M14, in the assay on OVCAR-8 and in the assay on UACC-62 was > 100 µM (inactive) each time. The GI50 in the assay with Malme-3M and in the assay with HOP-92 was > 100 µM (inactive) each time.
On to `CC(=O)N1C/C(=C\c2ccccc2)C(=O)/C(=C/c2ccccc2)C1`, for which the GI50 with EKVX was 24 µM (inactive); in the assay on SR, 2.99 µM (inactive); with U-251, 15.6 µM (inactive); with HCT-116, 2.51 µM (inactive); in the assay on 786-0, 15.6 µM (inactive); with NCI-H23 it was 19 µM (inactive). Besides, the GI50 with SF-268 is 23.2 µM (inactive); in the assay with SW-620 it was 2.67 µM (inactive); in the assay on DLD-1, 8.71 µM (inactive); with NCI-H226, 17.4 µM (inactive); with M14 it was 6.98 µM (inactive); with OVCAR-8 it was 7.8 µM (inactive). Also, the GI50 with UACC-62 is 14.4 µM (inactive); in the assay on Malme-3M it was 18.3 µM (inactive).
For the molecule `O=C(CC(=O)c1cccc2ccccc12)C(=O)Nc1ccc(Cl)cc1`, the GI50 in the assay on EKVX, in the assay with U-251, with HCT-116, in the assay on 786-0, with NCI-H23 and in the assay on SF-268 was > 100 µM (inactive) in each case. In addition, the GI50 in the assay with SW-620, in the assay on DLD-1, with NCI-H226, in the assay with M14, in the assay on OVCAR-8 and with UACC-62 was > 100 µM (inactive) throughout. Also, the GI50 is > 100 µM (inactive) with Malme-3M and 19.6 µM (inactive) in the assay on HOP-92.
Regarding `NC(=O)c1cn(C2OC(CO)C(O)C2O)c(=O)[nH]c1=O` (stereo not drawn), the GI50 in the assay on EKVX, in the assay on SR, in the assay with U-251, in the assay with HCT-116, in the assay on 786-0 and with NCI-H23 was > 100 µM (inactive) in each case. The GI50 with SF-268, in the assay with SW-620, with DLD-1, in the assay on NCI-H226, in the assay with M14 and with OVCAR-8 was > 100 µM (inactive) throughout. The GI50 with UACC-62 and in the assay with HOP-92 was > 100 µM (inactive) each time.
For `CC(=O)Oc1c2c(c(OC(C)=O)c3c1n(C(C)=O)c1ccccc1n3C(C)=O)n(C(C)=O)c1ccccc1n2C(C)=O`, the GI50 in the assay on EKVX is > 10 µM (inactive); in the assay on SR, 2.62 µM (inactive); in the assay with U-251, 10.9 µM (inactive); in the assay on HCT-116, 1.95 µM (inactive); with 786-0, 3.46 µM (inactive); with NCI-H23, 8.24 µM (inactive). Besides, the GI50 in the assay with SF-268 is 7.05 µM (inactive); in the assay with SW-620, 1.94 µM (inactive); in the assay on DLD-1, 3.04 µM (inactive); in the assay on M14, 4.44 µM (inactive); in the assay with OVCAR-8, 2.95 µM (inactive); with UACC-62, 8.73 µM (inactive). The GI50 in the assay with Malme-3M was 2.38 µM (inactive).
Take `COc1cc(C2c3cc4c(cc3C(NCC(O)CO)C3COC(=O)[C@H]23)OCO4)cc(OC)c1OC` (stereo partly drawn): the GI50 in the assay with EKVX is 0.4 µM (active); with SR, 0.177 µM (active); in the assay with U-251, 0.236 µM (active); with 786-0, 0.578 µM (active); in the assay with NCI-H23, 0.267 µM (active); in the assay on SF-268, 0.374 µM (active). Besides, the GI50 in the assay on SW-620 was 0.51 µM (active); in the assay with DLD-1, 0.531 µM (active); with NCI-H226, 0.289 µM (active); in the assay on M14, 0.533 µM (active); with OVCAR-8 it was 0.429 µM (active); in the assay with UACC-62, 0.0973 µM (active). In addition, the GI50 with Malme-3M is > 100 µM (inactive).
On to `CO[C@H](C(=O)O[C@H]1C(=O)N2CCC3CCC1C32C)c1ccccc1` (stereo partly drawn), for which the GI50 in the assay on EKVX, in the assay with SR, with U-251, in the assay on HCT-116, in the assay on 786-0 and with NCI-H23 was > 100 µM (inactive) each time. The GI50 in the assay with SF-268, in the assay with SW-620, in the assay on DLD-1, with NCI-H226, in the assay with M14 and in the assay on OVCAR-8 was > 100 µM (inactive) each time. Further, the GI50 in the assay on UACC-62 and with Malme-3M was > 100 µM (inactive) each time.

For the origin of these results see ChEMBL document CHEMBL1201862, “PubChem BioAssay data set” (2004).
